Columns and labels:
murine ATGL = molecular target: T1, murine ATGL (Mus musculus, UniProt Q8BJ56); experiment: Triglyceride hydrolase activity assay with COS7-cell lysate overexpressing recombinant murine ATGL, radiolabelled triolein substrate; type: biochemical; parameters: IC50 (%): unit not given here; conditions: for inhibition at 200 µM: 1 h, read-out: I200 (%); for inhibition at 200 µM / I200 (%): ATGL-inhibition efficiency at 200 μM inhibitor; for IC50 / biological activity against ATGL (in words): COS7-cell lysate overexpressing murine ATGL; for IC50 (%): COS7-cell lysate overexpressing recombinant murine ATGL, increasing inhibitor concentrations;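 on all read-outs here: radioactivity from the triolein substrate quantified by liquid scintillation counting after phase separation, reflecting triglyceride hydrolase activity of murine ATGL in lysates of transfected COS-7 cells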
T1 construct: expressed in transfected cells; host or cells: COS-7 (ATCC CRL-1651), transient transfection with Metafectene; crude lysate after 1000 x g spin
T1 sequence (Q8BJ56 1-486): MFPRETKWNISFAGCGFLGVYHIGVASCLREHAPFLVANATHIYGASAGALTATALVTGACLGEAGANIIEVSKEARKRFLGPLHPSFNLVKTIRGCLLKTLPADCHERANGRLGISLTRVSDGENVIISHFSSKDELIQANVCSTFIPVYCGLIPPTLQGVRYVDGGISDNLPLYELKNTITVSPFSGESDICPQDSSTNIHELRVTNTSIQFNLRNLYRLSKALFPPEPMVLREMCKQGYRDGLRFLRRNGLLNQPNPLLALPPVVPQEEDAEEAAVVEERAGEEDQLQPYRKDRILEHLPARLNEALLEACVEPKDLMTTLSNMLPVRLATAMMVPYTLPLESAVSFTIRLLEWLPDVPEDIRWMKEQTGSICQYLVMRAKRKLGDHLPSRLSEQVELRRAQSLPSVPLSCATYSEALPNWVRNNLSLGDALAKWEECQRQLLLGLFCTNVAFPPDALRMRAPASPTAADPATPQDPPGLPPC

| inhibition at 200 µM (murine ATGL) [%] | melting point | Compound | other results |
| --- | --- | --- | --- |
| 65 | 153 to 154 °C | COc1ccc(/C=N/N2CCN(c3ccccc3)CC2)cc1OC [Compound 1b, (E)-N-(3,4-Dimethoxybenzylidene)-4-phenylpiperazin-1-amine] | – |
| 56 | 180 °C (dec.) | COc1ccc(/C=N/N2CCN(c3ccccc3)CC2)cc1O [Compound 1c, (E)-2-Methoxy-5-((4-phenylpiperazin-1-ylimino)methyl)phenol] | – |
| 82 | – | COc1cc(/C=N/N2CCN(c3ccccc3)CC2)ccc1O [Compound 1d, (E)-2-Methoxy-4-((4-phenylpiperazin-1-ylimino)methyl)phenol] | – |
| 71 | 190 °C (dec.) | Oc1cccc(/C=N/N2CCN(c3ccccc3)CC2)c1 [Compound 1e, (E)-3-((4-Phenylpiperazin-1-ylimino)methyl)phenol] | – |
| 64 | 138 to 142 °C | Oc1ccccc1/C=N/N1CCN(c2ccccc2)CC1 [Compound 1f, (E)-2-((4-Phenylpiperazin-1-ylimino)methyl)phenol] | – |
| 85 | 192 °C (dec.) | Oc1ccc(/C=N/N2CCN(c3ccccc3)CC2)cc1 [Compound 1g, (E)-4-((4-Phenylpiperazin-1-ylimino)methyl)phenol] | – |
| 43 | 153 to 156 °C | COc1cc(OC)c(OC)cc1/C=N/N1CCN(c2ccccc2)CC1 [Compound 1k, (E)-4-Phenyl-N-(2,4,5-trimethoxybenzyliden)piperazin-1-amine] | – |
| 41 | 93 to 98 °C | COc1cc(/C=N/N2CCN(c3ccccc3)CC2)cc(OC)c1OC [Compound 1l, (E)-4-Phenyl-N-(3,4,5-trimethoxybenzylidene)piperazin-1-amine] | – |
| 67 | 152 to 154 °C | Fc1ccc(/C=N/N2CCN(c3ccccc3)CC2)cc1F [Compound 1m, (E)-N-(3,4-Difluorobenzylidene)-4-phenylpiperazin-1-amine] | IC50 (murine ATGL): 75 µM |
| 20 | 176 to 178 °C | Clc1ccc(/C=N/N2CCN(c3ccccc3)CC2)cc1Cl [Compound 1n, (E)-N-(3,4-Dichlorobenzylidene)-4-phenylpiperazin-1-amine] | biological activity against ATGL (in words) (murine ATGL): inactive |
| 42 | 113 to 115 °C | Clc1ccc(/C=N/N2CCN(c3ccccc3)CC2)c(Cl)c1 [Compound 1o, (E)-N-(2,4-Dichlorobenzylidene)-4-phenylpiperazin-1-amine] | – |
| 60 | 103 to 106 °C | O=[N+]([O-])c1ccccc1/C=N/N1CCN(c2ccccc2)CC1 [Compound 1p, (E)-N-(2-Nitrobenzylidene)-4-phenylpiperazin-1-amine] | – |
| 73 | 88 to 90 °C | Brc1ccccc1/C=N/N1CCN(c2ccccc2)CC1 [Compound 1q, (E)-N-(2-Bromobenzylidene)-4-phenylpiperazin-1-amine] | – |
| 76 | – | N#Cc1ccc(/C=N/N2CCN(c3ccccc3)CC2)cc1 [Compound 1s, (E)-4-((4-Phenylpiperazin-1-ylimino)methyl)benzonitrile] | IC50 (murine ATGL): 50 µM |
| 22 | 184 to 186 °C | Cc1ccc(/C=N/N2CCN(c3ccccc3)CC2)cc1 [Compound 1t, (E)-N-(4-Methylbenzylidene)-4-phenylpiperazin-1-amine] | biological activity against ATGL (in words) (murine ATGL): inactive |
| 5 | 190 °C (dec.) | CN(C)c1ccc(/C=N/N2CCN(c3ccccc3)CC2)cc1 [Compound 1u, (E)-N-(4-(Dimethylamino)benzylidene)-4-phenylpiperazin-1-amine] | – |
| 14 | – | CC(=O)Nc1ccc(/C=N/N2CCN(c3ccccc3)CC2)cc1 [Compound 1v, (E)-N-(4-((4-Phenylpiperazin-1-ylimino)methyl)phenyl)acetamide] | – |
| 5 | – | CN(CCO)c1ccc(/C=N/N2CCN(c3ccccc3)CC2)cc1 [Compound 1w, (E)-2-(Methyl(4-((4-phenylpiperazin-1-ylimino)methyl)phenyl)amino)ethanol] | – |
| 64 | 125 to 129 °C | C(=N\N1CCN(c2ccccc2)CC1)/c1ccc2c(c1)OCO2 [Compound 1x, (E)-N-(Benzo[d][1,3]dioxol-5-ylmethylen)-4-phenylpiperazin-1-amine] | – |

| inhibition at 200 µM (murine ATGL) [%] | melting point | Compound | other results |
| --- | --- | --- | --- |
| 27 | 186 to 187 °C | C(=N\N1CCN(c2ccccc2)CC1)/c1ccc2c(c1)OCCO2 [Compound 1y, (E)-N-((2,3-Dihydrobenzol[b][1,4]dioxin-6-yl)methylen)-4-phenylpiperazin-1-amine] | – |
| 16 | 320 to 330 °C (dec.) | O=c1[nH]c2ccc(/C=N/N3CCN(c4ccccc4)CC3)cc2[nH]1 [Compound 1z, (E)-5-((4-Phenylpiperazin-1-ylimino)methyl)-1H-benzo[d]imidazol-2(3H)-one] | – |
| 12 | – | CCCC/C=N/N1CCN(c2ccccc2)CC1 [Compound 2a, (E)-N-Pentyliden-4-phenylpiperazin-1-amine] | – |
| 12 | 48 °C | CCC/C=C/C=N/N1CCN(c2ccccc2)CC1 [Compound 2b, (E)-N-((E)-Hex-2-enyliden)-4-phenylpiperazin-1-amine] | – |
| 49 | 69 to 71 °C | C(=N\N1CCN(c2ccccc2)CC1)/C1CCCCC1 [Compound 2c, (E)-N-(Cyclohexylmethylen)-4-phenylpiperazin-1-amine] | – |
| 58 | 118 to 120 °C | C1=C(/C=N/N2CCN(c3ccccc3)CC2)CCCC1 [Compound 2d, (E)-N-(Cyclohexenylmethylen)-4-phenylpiperazin-1-amine] | biological activity against ATGL (in words) (murine ATGL): moderate activity |
| 16 | 117 to 119 °C | C(=N\N1CCN(c2ccccc2)CC1)/c1ccccn1 [Compound 2e, (E)-4-Phenyl-N-(pyridine-2-ylmethylen)piperazin-1-amine] | – |
| 46 | 111 to 113 °C | C(=N\N1CCN(c2ccccc2)CC1)/c1cccnc1 [Compound 2f, (E)-4-Phenyl-N-(pyridine-3-ylmethylen)piperazin-1-amine] | – |
| 60 | 156 to 158 °C | C(=N\N1CCN(c2ccccc2)CC1)/c1ccncc1 [Compound 2g, (E)-4-Phenyl-N-(pyridine-4-ylmethylen)piperazin-1-amine] | biological activity against ATGL (in words) (murine ATGL): moderate activity |
| < 1 | 195 to 198 °C (dec.) | C(=N\N1CCN(c2ccccc2)CC1)/c1ccc2ccccc2c1 [Compound 2h, (E)-N-(Naphthalene-2-ylmethylen)-4-phenylpiperazin-1-amine] | – |
| 8 | 210 to 212 °C | C(=N\N1CCN(c2ccccc2)CC1)/c1ccc2ccccc2n1 [Compound 2i, (E)-4-Phenyl-N-(quinoline-2-ylmethylen)-piperazin-1-amine] | – |
| 49 | 118 °C | C(=N\N1CCN(c2ccccc2)CC1)/c1cccc2ccccc12 [Compound 2j, (E)-N-(Naphthalene-1-methylen)-4-phenylpiperazin-1-amine] | – |
| 19 | 270 to 273 °C (dec.) | Oc1ccc(/C=N/N2CCN(c3ccncc3)CC2)c(O)c1 [Compound 3a, (E)-4-((4-(Pyridine-4-yl)piperazin-1-ylimino)methyl)benzene-1,3-diol] | – |
| 44 | – | Cc1cccc(N2CCN(/N=C/c3ccc(O)cc3O)CC2)c1 [Compound 3c, (E)-4-((4-m-Tolylpiperazin-1-ylimino)methyl)benzene-1,3-diol] | – |
| 87 | – | Oc1ccc(/C=N/N2CCCN(c3ccccc3)CC2)c(O)c1 [Compound 3j, (E)-4-((4-Phenyl-1,4-diazepan-1-ylimino)methyl)benzene-1,3-diol] | – |
| 38 | – | COc1ccc(C(=O)NN2CCN(c3ccccc3)CC2)cc1OC [Compound 10, 3,4-Dimethoxy-N-(4-phenylpiperazin-1-yl)benzamide] | biological activity against ATGL (in words) (murine ATGL): inactive |
| – | – | (E)-3-((4-Phenylpiperazin-1-ylimino)methyl)benzonitrile [Compound 1r] | I200 (%) (murine ATGL): 60%; IC50 (%) (murine ATGL): 120 |
| – | – | (E)-4-Phenyl-N-(4-propoxybenzylidene)piperazin-1-amine [Compound 1i] | I200 (%) (murine ATGL): 14%; IC50 (%) (murine ATGL): >200 |
| – | – | (E)-N-(4-Phenoxybenzylidene)-4-phenylpiperazin-1-amine [Compound 1j] | I200 (%) (murine ATGL): 24%; IC50 (%) (murine ATGL): >200 |

| Compound | inhibition at 200 µM (murine ATGL) [%] | melting point | other results |
| --- | --- | --- | --- |
| Oc1ccc(/C=N/N2CCN(c3ccc(F)cc3)CC2)c(O)c1 [Compound 3b, (E)-4-((4-(4-Fluorophenyl)piperazin-1-ylimino)methyl)benzene-1,3-diol] | 78 | 176 to 178 °C | IC50 (murine ATGL): 50 µM |

— paper PMC4457358, “Structure–activity studies in the development of a hydrazone based inhibitor of adipose-triglyceride lipase (ATGL)” (Bioorganic & Medicinal Chemistry, 2015)
